Assay [1] concerns Wistar rats. Put plainly: Novel object recognition test, subchronic PCP-induced cognitive impairment. Type of assay: in vivo, rat. As to conditions: PCP 5 mg/kg twice daily for 7 days IP. As to the method: The total exploration time of two identical objects in the acquisition trial was measured manually and indicated as the mean±SEM (n=10). No statistical difference was found in the total exploration time among the different groups by one-way ANOVA (P=0.340).
NDI was calculated using the following equation: novel object interaction time/total interaction time×100(%). Data are represented as the mean±SEM (n=10). Significant difference from control group was indicated by ***P<0.001 (Student's t-test). Significant differences from PCP-treated group were indicated by ##P<0.01, #P<0.05 (Dunnett test). Significant difference from PCP-treated group were indicated by ††P<0.01 (Student's t-test).
Exploration time of each object in retention trial was measured manually and presented as the mean±SEM (n=10). Significant differences from familiar object interaction were indicated by ***P<0.001, **P<0.01 (paired t-test).
A novel object recognition test was conducted to investigate the effect of SP-624 on subchronic PCP-induced cognitive impairment in Wistar rats. Clozapine was used as a positive control.

The subject of assay [2] is Long-Evans rats. The assay can be described thus: Novel object recognition test, scopolamine-induced cognitive impairment. The assay is classed as in vivo, rat. Conditions: scopolamine 0.1 mg/kg SC. On the procedure: Total exploration time of two identical objects in the acquisition trial was measured manually and indicated as the mean±SEM (n=8). No statistical difference was found in the total exploration time among the different groups by one-way ANOVA (P=0.115).
NDI was calculated using the following equation: novel object interaction time/total interaction time×100(%). Data are represented as the mean±SEM (n=8). Significant difference from control group was indicated by ***P<0.001 (Student's t-test). Significant differences from scopolamine-treated vehicle group were indicated by ##P<0.01 (Dunnett test). Significant difference from scopolamine-treated vehicle group were indicated by †††P<0.001 (Student's t-test).
Exploration time of each object in retention trial was measured manually and presented as the mean±SEM (n=8). Significant differences from familiar object interaction were indicated by **P<0.01, *P<0.05 (paired t-test).
A novel object recognition test (which evaluates visual learning and memory) was conducted to investigate the effect of compound 1 on scopolamine-induced cognitive impairment in Long-Evans rats. Donepezil was used as a positive control. Scopolamine at 0.1 mg/kg SC reduced the novelty discrimination index (NDI) a measure of cognitive function (FIGS. 4-6).

We go through 2 compounds from patent US20260034103A1, “COMPOSITIONS AND METHODS FOR IMPROVING MEMORY AND COGNITION” (priority 2022, published 2026).

For the compound `c1ccc(C2(N3CCCCC3)CCCCC2)cc1` [PCP, reference compound], the “NDI compared with sub-chronic vehicle treatment” value in assay [1] is listed as “significantly decreased”.

`CN1[C@@H]2C[C@@H](OC(=O)[C@H](CO)c3ccccc3)C[C@H]1[C@@H]1O[C@@H]12` [Scopolamine, reference compound]: the “novelty discrimination index (NDI)” value in assay [2] was “reduced”.
